31 compounds from patent US11807650B2, “NMDA receptor modulators and uses thereof” (Novartis AG, priority 2016, dated 2023) can be followed below.

Each structure is given as a SMILES string.

T1 sequence (O15399 28-1336, other chains not shown): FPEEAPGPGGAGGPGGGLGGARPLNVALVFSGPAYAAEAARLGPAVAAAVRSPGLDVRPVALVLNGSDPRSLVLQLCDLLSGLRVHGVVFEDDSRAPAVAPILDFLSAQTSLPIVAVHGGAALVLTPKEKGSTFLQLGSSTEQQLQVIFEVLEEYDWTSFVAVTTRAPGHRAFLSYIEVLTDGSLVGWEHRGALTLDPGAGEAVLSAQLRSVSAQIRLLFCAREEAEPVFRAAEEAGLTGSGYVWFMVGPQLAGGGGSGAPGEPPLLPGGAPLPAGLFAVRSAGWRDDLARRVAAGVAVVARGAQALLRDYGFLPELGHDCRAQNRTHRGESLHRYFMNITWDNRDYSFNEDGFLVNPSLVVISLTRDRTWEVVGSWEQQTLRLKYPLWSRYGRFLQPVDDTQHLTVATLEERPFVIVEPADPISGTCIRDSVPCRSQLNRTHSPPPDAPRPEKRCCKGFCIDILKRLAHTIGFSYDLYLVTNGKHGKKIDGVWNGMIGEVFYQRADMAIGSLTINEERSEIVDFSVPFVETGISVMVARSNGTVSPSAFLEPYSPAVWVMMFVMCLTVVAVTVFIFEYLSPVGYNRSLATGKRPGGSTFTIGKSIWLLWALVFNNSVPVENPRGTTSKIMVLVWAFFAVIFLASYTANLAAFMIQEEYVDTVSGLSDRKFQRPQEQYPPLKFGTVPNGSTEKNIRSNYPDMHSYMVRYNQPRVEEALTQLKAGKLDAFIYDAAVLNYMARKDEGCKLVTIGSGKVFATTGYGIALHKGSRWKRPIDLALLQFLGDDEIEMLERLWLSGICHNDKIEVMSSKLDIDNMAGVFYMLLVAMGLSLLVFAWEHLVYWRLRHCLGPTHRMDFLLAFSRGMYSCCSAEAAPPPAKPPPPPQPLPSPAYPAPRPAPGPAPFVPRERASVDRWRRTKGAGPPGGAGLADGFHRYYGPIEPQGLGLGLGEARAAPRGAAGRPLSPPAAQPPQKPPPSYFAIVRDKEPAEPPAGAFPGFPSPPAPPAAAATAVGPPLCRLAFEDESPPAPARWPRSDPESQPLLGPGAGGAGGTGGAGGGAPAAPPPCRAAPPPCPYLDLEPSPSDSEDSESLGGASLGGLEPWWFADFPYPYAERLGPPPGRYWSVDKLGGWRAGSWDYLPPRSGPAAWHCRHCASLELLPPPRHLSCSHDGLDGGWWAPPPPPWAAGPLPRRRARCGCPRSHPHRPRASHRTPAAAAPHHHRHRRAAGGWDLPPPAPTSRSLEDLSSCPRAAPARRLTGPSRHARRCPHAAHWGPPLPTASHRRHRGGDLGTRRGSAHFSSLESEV

This test has as its target T1, human GRIN1 (transcript variant NR1-3) and GRIN2D expressed in Xenopus oocytes (Homo sapiens, UniProt O15399).
T1 construct: GenScript (GRIN2D synthesis) SC115601; host or cells: Xenopus oocytes injected with cRNA (1 GluN1 : 2 GluN2)
Kind of test: NR2D oocyte potentiation assay (two-electrode voltage clamp). Particulars: 10 uM test compound; glutamate and glycine 10 μM each; holding potential −40 mV. It counts as cell-based. The method, boiled down: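 Xenopus oocytes were defolliculated with collagenase, then injected with 50 nL of cRNA encoding human GluN1 (NR1-3 variant) and GluN2D mixed 1:2 and kept 72 h at 16° C. Two-electrode voltage clamp at −40 mV recorded currents; after 10 μM glutamate plus 10 μM glycine reached plateau, test compound was added until a new plateau formed.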
For `C[C@H]1CSc2nc(-c3cnc(C(C)(C)C)nc3)c(C#N)c(=N)n2C1` [Example 100, (R)-8-(2-(tert-butyl)pyrimidin-5-yl)-6-imino-3-methyl-3,4-dihydro-2H,6H-pyrimido[2,1-b][1,3]thiazine-7-carbonitrile], the activation at 10 µM was > 1000%. Same read-out and setting: the result for `C[C@@H]1CSc2nc(-c3cnc(C(C)(C)C)nc3)c(C#N)c(=N)n2C1` [Example 101, (S)-8-(2-(tert-butyl)pyrimidin-5-yl)-6-imino-3-methyl-3,4-dihydro-2H,6H-pyrimido[2,1-b][1,3]thiazine-7-carbonitrile] reads > 1000%. On the same count and under the same terms, next, `CC(C)(C)c1ncc(-c2cc3n(c(=O)c2C#N)CCCS3)cc1F` [Example 102, 8-(6-(tert-butyl)-5-fluoropyridin-3-yl)-6-oxo-3,4-dihydro-2H,6H-pyrido[2,1-b][1,3]thiazine-7-carbonitrile]: > 1000%; `CC1CSc2cc(-c3cnc(C(C)(C)C)c(F)c3)c(C#N)c(=O)n2C1` (stereo not shown) [Example 103, 8-(6-(tert-butyl)-5-fluoropyridin-3-yl)-3-methyl-6-oxo-3,4-dihydro-2H,6H-pyrido[2,1-b][1,3]thiazine-7-carbonitrile]: > 1000%. `C[C@H]1CSc2cc(-c3cnc(C(C)(C)C)nc3)c(C#N)c(=O)n2C1` [Example 104, (R)-8-(2-(tert-butyl)pyrimidin-5-yl)-3-methyl-6-oxo-3,4-dihydro-2H,6H-pyrido[2,1-b][1,3]thiazine-7-carbonitrile]: the activation at 10 µM was > 1000%.

As to `C[C@@H]1CSc2cc(-c3cnc(C(C)(C)C)nc3)c(C#N)c(=O)n2C1` [Example 105, (S)-8-(2-(tert-butyl)pyrimidin-5-yl)-3-methyl-6-oxo-3,4-dihydro-2H,6H-pyrido[2,1-b][1,3]thiazine-7-carbonitrile], the activation at 10 µM was > 1000%. As for `C[C@H]1CSc2cc(-c3cnc(C(C)(C)C)c(F)c3)c(C#N)c(=O)n2C1` [Example 106, (R)-8-(6-(tert-butyl)-5-fluoropyridin-3-yl)-3-methyl-6-oxo-3,4-dihydro-2H,6H-pyrido[2,1-b][1,3]thiazine-7-carbonitrile], the activation at 10 µM was > 1000%. As for `C[C@@H]1CSc2cc(-c3cnc(C(C)(C)C)c(F)c3)c(C#N)c(=O)n2C1` [Example 107, (S)-8-(6-(tert-butyl)-5-fluoropyridin-3-yl)-3-methyl-6-oxo-3,4-dihydro-2H,6H-pyrido[2,1-b][1,3]thiazine-7-carbonitrile], the activation at 10 µM is 500 to 1000%.

As to `CC1CSc2nc(-c3ccc(C4(C)CC4)nc3)c(C#N)c(=O)n2C1` (stereo not shown) [Example 108, 3-methyl-8-(6-(1-methylcyclopropyl)pyridin-3-yl)-6-oxo-3,4-dihydro-2H,6H-pyrimido[2,1-b][1,3]thiazine-7-carbonitrile], the activation at 10 µM fell in the range of 500 to 1000%. Same read-out and setting: next, `CC1(c2ccc(-c3nc4n(c(=O)c3C#N)CCCS4)cn2)CC1` [Example 109, 8-[6-(1-methyl-cyclopropyl)pyridin-3-yl]-6-oxo-2H,3H, 4H,6H-pyrimido[2,1-b] [1,3]thiazine-7-carbonitrile]: 500 to 1000%. The same measure, in the same setting: next, `CC1(c2ccc(-c3nc4n(c(=O)c3C#N)CCCS4)cn2)CC1(F)F` (stereo not shown) [Example 110, 8-(6-(2,2-difluoro-1-methylcyclopropyl)pyridin-3-yl)-6-oxo-3,4-dihydro-2H,6H-pyrimido[2,1-b][1,3]thiazine-7-carbonitrile]: 500 to 1000%.

With `CC1CSc2nc(-c3ccc(C4(C)CC4(F)F)nc3)c(C#N)c(=O)n2C1` (stereo not shown) [Example 111, 8-[6-(2,2-difluoro-1-methyl-cyclopropyl)pyridin-3-yl]-3-methyl-6-oxo-2H,3H,4H,6H-pyimido[2,1-b] [1,3]thiazine-7-carbonitrile], the activation at 10 µM lay within 500 to 1000%. For `C[C@H]1CSc2nc(-c3cnc(C(C)(C)C)c(F)c3)c(C#N)c(=N)n2C1` [Example 112, (R)-8-(6-(tert-butyl)-5-fluoropyridin-3-yl)-6-imino-3-methyl-3,4-dihydro-2H,6H-pyrimido[2,1-b][1,3]thiazine-7-carbonitrile], the activation at 10 µM is > 1000%.

Take `C[C@@H]1CSc2nc(-c3cnc(C(C)(C)C)c(F)c3)c(C#N)c(=N)n2C1` [Example 113, (S)-8-(6-(tert-butyl)-5-fluoropyridin-3-yl)-6-imino-3-methyl-3,4-dihydro-2H,6H-pyrimido[2,1-b][1,3]thiazine-7-carbonitrile]: the activation at 10 µM is > 1000%. Same read-out and setting: next, `C=C1CSc2nc(-c3ccc(C(C)(C)C)nc3)c(C#N)c(=O)n2C1` [Example 114, 8-(6-(tert-butyl)pyridin-3-yl)-3-methylene-6-oxo-3,4-dihydro-2H,6H-pyrimido[2,1-b][1,3]thiazine-7-carbonitrile]: > 1000%. For `C[C@H]1CSc2nc(-c3ccc(C4(C)CC4)nc3)c(C#N)c(=O)n2C1` [Example 115, (R)-3-methyl-8-(6-(1-methylcyclopropyl)pyridin-3-yl)-6-oxo-3,4-dihydro-2H,6H-pyrimido[2,1-b][1,3]thiazine-7-carbonitrile], the activation at 10 µM was in the range of 100 to 500%. Still for that read-out and setting: next, `C[C@@H]1CSc2nc(-c3ccc(C4(C)CC4)nc3)c(C#N)c(=O)n2C1` [Example 116, (S)-3-methyl-8-(6-(1-methylcyclopropyl)pyridin-3-yl)-6-oxo-3,4-dihydro-2H,6H-pyrimido[2,1-b][1,3]thiazine-7-carbonitrile]: > 1000%.

With `C[C@H]1CSc2cc(-c3ccc(C4(C)CC4)nc3)c(C#N)c(=O)n2C1` [Example 117, (R)-3-methyl-8-(6-(1-methylcyclopropyl)pyridin-3-yl)-6-oxo-3,4-dihydro-2H,6H-pyrido[2,1-b][1,3]thiazine-7-carbonitrile], the activation at 10 µM is > 1000%. The same measure, in the same setting: the result for `C[C@@H]1CSc2cc(-c3ccc(C4(C)CC4)nc3)c(C#N)c(=O)n2C1` [Example 118, (S)-3-methyl-8-(6-(1-methylcyclopropyl)pyridin-3-yl)-6-oxo-3,4-dihydro-2H,6H-pyrido[2,1-b][1,3]thiazine-7-carbonitrile] reads > 1000%; that for `COC(C)(C)c1ccc(-c2nc3n(c(=O)c2C#N)CC(C)CS3)cn1` (stereo not shown) [Example 119, 8-(6-(2-methoxypropan-2-yl)pyridin-3-yl)-3-methyl-6-oxo-3,4-dihydro-2H,6H-pyrimido[2,1-b][1,3]thiazine-7-carbonitrile], 10 to 100%; that for `COC(C)(C)c1ccc(-c2nc3n(c(=O)c2C#N)CCCS3)cn1` [Example 120], 10 to 100%. On to `CCOC(C)(C)c1ccc(-c2nc3n(c(=O)c2C#N)CC(C)CS3)cn1` (stereo not shown) [Example 121, 8-(6-(2-ethoxypropan-2-yl)pyridin-3-yl)-3-methyl-6-oxo-3,4-dihydro-2H,6H-pyrimido[2,1-b][1,3]thiazine-7-carbonitrile], for which the “NR2D Oocyte % Potentiation @ 10 uM” value is “Inhibitor”.

For `CCOC(C)(C)c1ccc(-c2nc3n(c(=O)c2C#N)CCCS3)cn1` [Example 122, 8-(6-(2-ethoxypropan-2-yl)pyridin-3-yl)-6-oxo-3,4-dihydro-2H,6H-pyrimido[2,1-b][1,3]thiazine-7-carbonitrile], the “NR2D Oocyte % Potentiation @ 10 uM” value is on record as “Inhibitor”.

On to `COCC1CSc2nc(-c3ccc(C(C)(C)C)nc3)c(C#N)c(=O)n2C1` (stereo not shown) [Example 123, 8-(6-(tert-butyl)pyridin-3-yl)-3-(methoxymethyl)-6-oxo-3,4-dihydro-2H,6H-pyrimido[2,1-b][1,3]thiazine-7-carbonitrile], for which the activation at 10 µM is 500 to 1000%. The same measure, in the same setting: the result for `COCC1CSc2nc(-c3cnc(C(C)(C)C)nc3)c(C#N)c(=O)n2C1` (stereo not shown) [Example 124, 8-(2-(tert-butyl)pyrimidin-5-yl)-3-(methoxymethyl)-6-oxo-3,4-dihydro-2H,6H-pyrimido[2,1-b][1,3]thiazine-7-carbonitrile] reads 500 to 1000%. The same measure, in the same setting: next, `COCC1CSc2nc(-c3cnc(C(C)(C)C)c(F)c3)c(C#N)c(=O)n2C1` (stereo not shown) [Example 125, 8-(6-(tert-butyl)-5-fluoropyridin-3-yl)-3-(methoxymethyl)-6-oxo-3,4-dihydro-2H,6H-pyrimido[2,1-b][1,3]thiazine-7-carbonitrile]: > 1000%. For the compound `CC1CSc2nc(-c3cnc(C(C)(C)C)c(O)c3)c(C#N)c(=O)n2C1` (stereo not shown) [Example 126, 8-(6-(tert-butyl)-5-hydroxypyridin-3-yl)-3-methyl-6-oxo-3,4-dihydro-2H,6H-pyrimido[2,1-b][1,3]thiazine-7-carbonitrile], the activation at 10 µM is > 1000%. With `CC(C)(C)c1ncc(-c2nc3n(c(=O)c2C#N)CCCS3)cc1O` [Example 127, 8-(6-(tert-butyl)-5-hydroxypyridin-3-yl)-6-oxo-3,4-dihydro-2H,6H-pyrimido[2,1-b][1,3]thiazine-7-carbonitrile], the activation at 10 µM was > 1000%. The same measure, in the same setting: next, `CN(C)C(C)(C)c1ccc(-c2nc3n(c(=O)c2C#N)CCCS3)cn1` [Example 128, 8-(6-(2-(dimethylamino)propan-2-yl)pyridin-3-yl)-6-oxo-3,4-dihydro-2H,6H-pyrimido[2,1-b][1,3]thiazine-7-carbonitrile]: < 10%; `CC(C)(C)c1ccc(-c2nc3n(c(=O)c2C#N)C[C@@H](CO)CS3)cn1` [Example 129, (S)-8-(6-(tert-butyl)pyridin-3-yl)-3-(hydroxymethyl)-6-oxo-3,4-dihydro-2H,6H-pyrimido[2,1-b][1,3]thiazine-7-carbonitrile]: > 1000%; `CC(C)(C)c1ccc(-c2nc3n(c(=O)c2C#N)C[C@H](CO)CS3)cn1` [Example 130, (R)-8-(6-(tert-butyl)pyridin-3-yl)-3-(hydroxymethyl)-6-oxo-3,4-dihydro-2H,6H-pyrimido[2,1-b][1,3]thiazine-7-carbonitrile]: 100 to 500%.
